Among the data in ChEMBL document CHEMBL5291721, “A preclinical secondary pharmacology resource illuminates target-adverse drug reaction associations of marketed drugs” (Nat Commun, 2023) are AC50 values, retold here.

Among the targets are Substance-P receptor (Homo sapiens, UniProt P25103); Histamine H2 receptor (Homo sapiens, UniProt P25021); Estrogen receptor beta (Homo sapiens, UniProt Q92731); D(1A) dopamine receptor (Homo sapiens, UniProt P21728).
In experiment [1] the target is Neurotensin receptor type 1 (Homo sapiens, UniProt P30989).
The next experiment deals with T1, Progesterone receptor (Homo sapiens, UniProt P06401).
T1 sequence (P06401 whole entry): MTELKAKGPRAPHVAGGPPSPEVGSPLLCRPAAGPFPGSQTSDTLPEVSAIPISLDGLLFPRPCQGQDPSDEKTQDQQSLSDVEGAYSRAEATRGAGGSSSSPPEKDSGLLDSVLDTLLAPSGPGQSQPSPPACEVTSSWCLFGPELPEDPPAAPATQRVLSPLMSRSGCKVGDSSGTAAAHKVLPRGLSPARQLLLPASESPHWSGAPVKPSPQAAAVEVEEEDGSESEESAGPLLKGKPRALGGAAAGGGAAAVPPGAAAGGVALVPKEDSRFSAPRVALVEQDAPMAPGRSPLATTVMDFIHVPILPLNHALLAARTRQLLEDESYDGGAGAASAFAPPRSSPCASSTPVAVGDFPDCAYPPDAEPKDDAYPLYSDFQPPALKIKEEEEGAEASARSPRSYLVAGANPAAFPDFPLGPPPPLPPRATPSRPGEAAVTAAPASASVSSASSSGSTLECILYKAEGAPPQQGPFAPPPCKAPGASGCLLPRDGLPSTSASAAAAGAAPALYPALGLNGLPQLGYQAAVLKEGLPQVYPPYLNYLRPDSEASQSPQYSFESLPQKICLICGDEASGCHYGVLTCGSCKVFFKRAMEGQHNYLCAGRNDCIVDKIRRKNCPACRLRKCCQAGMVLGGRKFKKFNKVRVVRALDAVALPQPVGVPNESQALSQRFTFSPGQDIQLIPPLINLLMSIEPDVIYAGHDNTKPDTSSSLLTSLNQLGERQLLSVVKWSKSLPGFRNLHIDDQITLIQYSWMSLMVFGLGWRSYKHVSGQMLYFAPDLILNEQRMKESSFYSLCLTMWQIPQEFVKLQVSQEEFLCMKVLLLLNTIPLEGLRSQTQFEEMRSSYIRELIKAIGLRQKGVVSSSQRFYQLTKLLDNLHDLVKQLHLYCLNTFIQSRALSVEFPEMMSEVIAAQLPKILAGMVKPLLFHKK

The target in experiment [2] is T2, 5-hydroxytryptamine receptor 1A (Homo sapiens, UniProt P08908).
T2 sequence (P08908 whole entry): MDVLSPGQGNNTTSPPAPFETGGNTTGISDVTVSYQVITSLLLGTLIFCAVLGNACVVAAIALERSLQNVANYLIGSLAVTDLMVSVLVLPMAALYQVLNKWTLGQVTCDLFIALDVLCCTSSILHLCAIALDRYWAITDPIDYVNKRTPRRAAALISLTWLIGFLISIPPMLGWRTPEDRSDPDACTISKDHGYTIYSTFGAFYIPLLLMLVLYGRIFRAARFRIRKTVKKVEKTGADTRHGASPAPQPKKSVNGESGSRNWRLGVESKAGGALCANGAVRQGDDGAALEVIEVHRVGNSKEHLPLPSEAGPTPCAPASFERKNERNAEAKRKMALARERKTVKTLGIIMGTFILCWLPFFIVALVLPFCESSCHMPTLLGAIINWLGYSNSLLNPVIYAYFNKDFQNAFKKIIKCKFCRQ

The target in experiment [3] is Voltage-dependent N-type calcium channel subunit alpha-1B (Rattus norvegicus, UniProt Q02294). The experiment is classed as functional.
The target of experiment [4] is T3, Peroxisome proliferator-activated receptor gamma (Homo sapiens, UniProt P37231).
T3 sequence (P37231 whole entry): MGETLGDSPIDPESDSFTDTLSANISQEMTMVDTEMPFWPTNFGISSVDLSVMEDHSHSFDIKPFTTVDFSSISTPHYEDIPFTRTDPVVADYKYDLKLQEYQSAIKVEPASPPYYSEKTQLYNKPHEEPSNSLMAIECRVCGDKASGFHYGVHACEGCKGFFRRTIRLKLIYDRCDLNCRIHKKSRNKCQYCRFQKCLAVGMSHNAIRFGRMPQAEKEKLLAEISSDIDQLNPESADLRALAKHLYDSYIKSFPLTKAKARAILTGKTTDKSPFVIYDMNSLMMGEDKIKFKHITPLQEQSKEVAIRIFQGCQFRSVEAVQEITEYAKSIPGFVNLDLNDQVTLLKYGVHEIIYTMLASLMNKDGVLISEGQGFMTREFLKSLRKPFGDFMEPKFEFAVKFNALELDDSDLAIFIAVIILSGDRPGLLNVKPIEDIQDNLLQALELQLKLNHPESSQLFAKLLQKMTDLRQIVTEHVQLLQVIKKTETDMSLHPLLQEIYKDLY
The experiment is classed as functional.

Experiment [5] deals with T3, Peroxisome proliferator-activated receptor gamma. The experiment is classed as functional. The source holds these as a separate data set.
Experiment [6] deals with T4, Muscarinic acetylcholine receptor M2 (Homo sapiens, UniProt P08172).
T4 sequence (P08172 whole entry): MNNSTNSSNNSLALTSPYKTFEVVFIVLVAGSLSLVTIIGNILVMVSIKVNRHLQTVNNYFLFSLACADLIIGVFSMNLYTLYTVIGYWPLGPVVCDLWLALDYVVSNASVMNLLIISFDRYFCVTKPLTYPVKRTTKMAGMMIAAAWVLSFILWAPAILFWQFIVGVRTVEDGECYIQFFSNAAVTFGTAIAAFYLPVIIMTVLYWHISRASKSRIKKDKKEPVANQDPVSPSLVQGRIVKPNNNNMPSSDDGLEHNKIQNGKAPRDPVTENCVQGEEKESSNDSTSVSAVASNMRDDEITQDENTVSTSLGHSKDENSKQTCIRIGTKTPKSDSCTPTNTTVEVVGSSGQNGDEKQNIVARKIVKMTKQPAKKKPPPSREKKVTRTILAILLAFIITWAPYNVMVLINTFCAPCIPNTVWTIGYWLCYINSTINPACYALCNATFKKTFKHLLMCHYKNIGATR
Further: assay procedure not described here.

Chain of Estrogen receptor beta (Q92731 whole entry): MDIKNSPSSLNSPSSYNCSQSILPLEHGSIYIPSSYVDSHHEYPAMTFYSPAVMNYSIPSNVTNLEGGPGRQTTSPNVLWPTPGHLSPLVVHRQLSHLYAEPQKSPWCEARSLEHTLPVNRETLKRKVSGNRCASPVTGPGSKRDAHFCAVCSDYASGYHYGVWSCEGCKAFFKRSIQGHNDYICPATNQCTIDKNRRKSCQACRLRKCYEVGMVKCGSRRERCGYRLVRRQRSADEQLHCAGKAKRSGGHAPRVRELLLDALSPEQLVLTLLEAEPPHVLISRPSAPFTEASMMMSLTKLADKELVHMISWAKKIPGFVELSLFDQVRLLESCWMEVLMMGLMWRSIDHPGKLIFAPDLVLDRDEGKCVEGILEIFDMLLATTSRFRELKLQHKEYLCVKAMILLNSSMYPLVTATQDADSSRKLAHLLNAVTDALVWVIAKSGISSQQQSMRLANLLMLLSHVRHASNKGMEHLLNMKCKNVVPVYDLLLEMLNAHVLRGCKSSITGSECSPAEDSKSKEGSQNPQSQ
Chain of D(1A) dopamine receptor (P21728 whole entry): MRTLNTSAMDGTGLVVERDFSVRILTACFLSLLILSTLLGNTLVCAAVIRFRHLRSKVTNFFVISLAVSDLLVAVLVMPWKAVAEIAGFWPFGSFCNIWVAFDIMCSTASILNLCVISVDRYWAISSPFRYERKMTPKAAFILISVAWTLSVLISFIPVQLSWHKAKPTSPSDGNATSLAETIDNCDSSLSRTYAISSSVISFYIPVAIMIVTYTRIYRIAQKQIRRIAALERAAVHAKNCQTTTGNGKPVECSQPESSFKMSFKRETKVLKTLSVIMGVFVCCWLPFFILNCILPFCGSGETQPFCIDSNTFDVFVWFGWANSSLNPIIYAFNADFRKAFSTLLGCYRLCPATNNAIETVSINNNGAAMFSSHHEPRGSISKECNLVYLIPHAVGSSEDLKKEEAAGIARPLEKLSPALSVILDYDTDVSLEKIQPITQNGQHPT
Chain of Substance-P receptor (P25103 whole entry): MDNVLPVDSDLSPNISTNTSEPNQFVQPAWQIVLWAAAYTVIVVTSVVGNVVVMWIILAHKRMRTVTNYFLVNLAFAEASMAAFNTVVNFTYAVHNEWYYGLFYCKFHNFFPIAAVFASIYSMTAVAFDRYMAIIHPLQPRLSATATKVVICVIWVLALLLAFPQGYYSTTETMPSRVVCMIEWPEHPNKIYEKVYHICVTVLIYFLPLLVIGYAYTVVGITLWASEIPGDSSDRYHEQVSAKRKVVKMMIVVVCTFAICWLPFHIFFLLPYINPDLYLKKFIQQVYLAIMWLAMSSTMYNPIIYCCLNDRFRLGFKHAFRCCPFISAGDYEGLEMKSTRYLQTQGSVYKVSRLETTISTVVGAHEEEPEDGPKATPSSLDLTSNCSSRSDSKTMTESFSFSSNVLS
Chain of Voltage-dependent N-type calcium channel subunit alpha-1B (Q02294 whole entry): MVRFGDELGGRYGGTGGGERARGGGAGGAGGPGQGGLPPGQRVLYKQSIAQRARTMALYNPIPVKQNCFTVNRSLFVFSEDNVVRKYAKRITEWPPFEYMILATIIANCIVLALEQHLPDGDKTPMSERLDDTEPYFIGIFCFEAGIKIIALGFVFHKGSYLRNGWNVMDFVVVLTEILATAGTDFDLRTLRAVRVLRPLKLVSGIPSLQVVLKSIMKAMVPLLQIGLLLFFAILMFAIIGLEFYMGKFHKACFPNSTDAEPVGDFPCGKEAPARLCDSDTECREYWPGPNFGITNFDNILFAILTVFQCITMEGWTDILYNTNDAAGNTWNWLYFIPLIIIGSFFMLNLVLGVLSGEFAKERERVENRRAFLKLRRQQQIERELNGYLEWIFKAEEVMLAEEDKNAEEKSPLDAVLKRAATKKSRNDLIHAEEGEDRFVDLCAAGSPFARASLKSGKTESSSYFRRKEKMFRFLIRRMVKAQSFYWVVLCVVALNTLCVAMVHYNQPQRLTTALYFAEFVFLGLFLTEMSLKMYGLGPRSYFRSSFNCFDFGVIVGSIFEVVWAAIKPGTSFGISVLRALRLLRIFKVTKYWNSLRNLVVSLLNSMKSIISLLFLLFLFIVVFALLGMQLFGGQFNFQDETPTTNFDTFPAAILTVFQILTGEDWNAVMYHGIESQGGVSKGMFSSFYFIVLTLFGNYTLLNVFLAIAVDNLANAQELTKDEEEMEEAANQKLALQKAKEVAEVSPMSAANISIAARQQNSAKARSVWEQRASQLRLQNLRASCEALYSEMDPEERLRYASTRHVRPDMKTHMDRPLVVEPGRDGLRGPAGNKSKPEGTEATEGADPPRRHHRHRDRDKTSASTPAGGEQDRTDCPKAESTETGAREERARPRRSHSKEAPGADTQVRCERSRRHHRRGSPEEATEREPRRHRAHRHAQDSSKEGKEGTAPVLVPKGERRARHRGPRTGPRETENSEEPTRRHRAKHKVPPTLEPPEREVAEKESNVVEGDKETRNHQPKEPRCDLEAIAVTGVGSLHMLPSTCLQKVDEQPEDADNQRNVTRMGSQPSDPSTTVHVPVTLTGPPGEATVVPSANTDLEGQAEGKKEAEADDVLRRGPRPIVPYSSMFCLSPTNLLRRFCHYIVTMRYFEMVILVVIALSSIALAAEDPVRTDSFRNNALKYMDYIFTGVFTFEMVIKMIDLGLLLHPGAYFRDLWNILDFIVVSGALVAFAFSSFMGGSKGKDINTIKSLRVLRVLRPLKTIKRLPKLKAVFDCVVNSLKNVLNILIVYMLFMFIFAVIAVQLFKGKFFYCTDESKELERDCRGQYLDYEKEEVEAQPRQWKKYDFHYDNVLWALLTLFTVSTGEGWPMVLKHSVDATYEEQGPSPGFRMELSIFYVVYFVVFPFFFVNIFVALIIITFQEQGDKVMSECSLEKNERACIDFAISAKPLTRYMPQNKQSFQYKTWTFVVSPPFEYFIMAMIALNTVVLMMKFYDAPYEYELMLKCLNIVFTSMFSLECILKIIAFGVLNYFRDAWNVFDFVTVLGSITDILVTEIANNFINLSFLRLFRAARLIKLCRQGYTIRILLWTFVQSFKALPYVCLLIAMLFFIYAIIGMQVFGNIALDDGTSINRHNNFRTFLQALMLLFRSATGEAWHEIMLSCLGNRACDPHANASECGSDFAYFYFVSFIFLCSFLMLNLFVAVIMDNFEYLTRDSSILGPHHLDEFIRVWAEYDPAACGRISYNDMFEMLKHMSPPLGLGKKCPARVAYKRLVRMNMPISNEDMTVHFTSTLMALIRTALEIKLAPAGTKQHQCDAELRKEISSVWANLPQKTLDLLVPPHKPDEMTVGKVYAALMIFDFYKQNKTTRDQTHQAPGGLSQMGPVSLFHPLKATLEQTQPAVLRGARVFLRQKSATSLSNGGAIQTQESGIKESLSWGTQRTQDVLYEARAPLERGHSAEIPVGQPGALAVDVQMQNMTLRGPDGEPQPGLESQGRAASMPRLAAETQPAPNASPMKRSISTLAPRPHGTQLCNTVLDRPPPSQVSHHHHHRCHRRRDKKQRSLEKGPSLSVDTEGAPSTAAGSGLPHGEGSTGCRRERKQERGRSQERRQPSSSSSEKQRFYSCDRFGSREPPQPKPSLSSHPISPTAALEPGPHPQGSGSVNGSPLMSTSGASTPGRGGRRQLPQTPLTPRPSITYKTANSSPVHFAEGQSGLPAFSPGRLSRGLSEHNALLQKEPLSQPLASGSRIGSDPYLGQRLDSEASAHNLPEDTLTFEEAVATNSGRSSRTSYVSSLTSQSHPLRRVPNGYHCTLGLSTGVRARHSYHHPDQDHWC
Chain of Histamine H2 receptor (P25021 whole entry): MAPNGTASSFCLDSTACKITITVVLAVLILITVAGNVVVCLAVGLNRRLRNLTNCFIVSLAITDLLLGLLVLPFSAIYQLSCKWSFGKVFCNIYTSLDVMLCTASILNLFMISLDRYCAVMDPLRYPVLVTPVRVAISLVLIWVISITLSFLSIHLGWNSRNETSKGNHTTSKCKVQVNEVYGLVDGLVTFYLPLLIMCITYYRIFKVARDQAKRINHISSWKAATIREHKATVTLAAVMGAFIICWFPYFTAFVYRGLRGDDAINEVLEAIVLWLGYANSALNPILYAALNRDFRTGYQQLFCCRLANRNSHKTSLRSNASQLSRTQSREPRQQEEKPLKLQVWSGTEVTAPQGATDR
Chain of Neurotensin receptor type 1 (P30989 whole entry): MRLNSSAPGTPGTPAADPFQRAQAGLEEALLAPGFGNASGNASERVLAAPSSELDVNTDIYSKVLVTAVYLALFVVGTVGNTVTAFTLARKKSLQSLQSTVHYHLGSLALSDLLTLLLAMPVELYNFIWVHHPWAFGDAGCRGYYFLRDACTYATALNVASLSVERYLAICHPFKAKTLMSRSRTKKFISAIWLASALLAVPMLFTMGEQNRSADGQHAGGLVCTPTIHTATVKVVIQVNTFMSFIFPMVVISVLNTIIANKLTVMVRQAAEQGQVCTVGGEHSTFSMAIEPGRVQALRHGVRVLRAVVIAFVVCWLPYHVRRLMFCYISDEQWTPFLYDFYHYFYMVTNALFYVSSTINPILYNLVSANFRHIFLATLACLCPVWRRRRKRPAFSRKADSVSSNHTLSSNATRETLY

As for `NCCCC(O)(P(=O)(O)O)P(=O)(O)O` [ALENDRONIC ACID], the AC50 at Substance-P receptor is more than 10 µM; at Histamine H2 receptor, more than 10 µM; in experiment [1] it was more than 30 µM; on Progesterone receptor, more than 30 µM; in [2], more than 10 µM; in experiment [3], more than 10 µM. Besides, the AC50 at Estrogen receptor beta is more than 30 µM.
`CS(=O)(=O)OCCCCOS(C)(=O)=O` [BUSULFAN]: the AC50 in experiment [4] and in [5] was more than 30 µM in each case.
Consider `CCCCC1(CC)C(=O)NC(=O)NC1=O` [BUTETHAL], for which the AC50 in experiment [4] and in [5] was more than 30 µM each time.
`C=CC1=C(C(=O)O)N2C(=O)[C@@H](NC(=O)/C(=N\OCC(=O)O)c3csc(N)n3)[C@H]2SC1` [CEFIXIME]: the AC50 in experiment [4] and in [5] was more than 30 µM each time.
With `CO[C@@]1(NC(=O)Cc2cccs2)C(=O)N2C(C(=O)O)=C(COC(N)=O)CS[C@@H]21` [CEFOXITIN], the AC50 in experiment [4] is 11 µM; in experiment [5], more than 30 µM.
As for `CCN(CC)CCOC(=O)c1ccc(N)cc1Cl` [CHLOROPROCAINE], the AC50 in [4] and in experiment [5] was more than 30 µM in each case.
With `COc1cccc2c1C(=O)c1c(O)c3c(c(O)c1C2=O)C[C@@](O)(C(C)=O)C[C@@H]3O[C@H]1C[C@H](N)[C@H](O)[C@H](C)O1` [DAUNORUBICIN], the AC50 in experiment [4] was more than 10 µM; in experiment [5], more than 30 µM.
With `N[C@H](Cc1cc(I)c(Oc2cc(I)c(O)c(I)c2)c(I)c1)C(=O)O` [DEXTROTHYROXINE], the AC50 at D(1A) dopamine receptor was more than 10 µM; in [6], more than 10 µM; at Histamine H2 receptor, more than 10 µM; in experiment [1], 4.8 µM; on Progesterone receptor it was more than 30 µM; in experiment [2], more than 10 µM. Moreover, the AC50 is more than 10 µM in experiment [3] and more than 30 µM on Estrogen receptor beta.
In turn, `CCCCC[C@H](O)/C=C/[C@H]1[C@H](O)CC(=O)[C@@H]1C/C=C\CCCC(=O)O` [DINOPROSTONE] yielded an AC50 on D(1A) dopamine receptor of more than 30 µM.
In the case of `Clc1ccc2c(c1)C(c1ccccc1)=NCc1nncn1-2` [ESTAZOLAM], the AC50 on Progesterone receptor was more than 30 µM; in [2], more than 10 µM.
As for `CCCN(CC)C(CC)C(=O)Nc1c(C)cccc1C` (stereo not given) [ETIDOCAINE], the AC50 in experiment [2] is more than 30 µM.
For `CC(=O)OCC(CCn1cnc2cnc(N)nc21)COC(C)=O` [FAMCICLOVIR], the AC50 at Substance-P receptor was more than 10 µM; on D(1A) dopamine receptor, more than 10 µM; in experiment [6], more than 10 µM; on Histamine H2 receptor it was more than 10 µM; in experiment [1] it was more than 30 µM; at Progesterone receptor, more than 30 µM. Besides, the figures for the AC50 (in experiment [2]; in experiment [3]; at Estrogen receptor beta) were more than 10 µM, more than 10 µM and more than 30 µM, respectively.
`O=C(O)c1ccccc1Nc1cccc(C(F)(F)F)c1` [FLUFENAMIC ACID]: the AC50 in [1] is more than 30 µM; at Progesterone receptor it was more than 30 µM; in experiment [2] it was more than 10 µM; in experiment [3], more than 10 µM; at Estrogen receptor beta it was more than 30 µM.
As for `O=C(O)c1ccccc1OP(=O)(O)O` [FOSFOSAL], the AC50 in experiment [4] and in experiment [5] was more than 30 µM throughout.
Turning to `Nc1ccn([C@@H]2O[C@H](CO)[C@@H](O)C2(F)F)c(=O)n1` [GEMCITABINE], the AC50 in experiment [2] was more than 10 µM.
With `Nc1nc2c(c(=O)[nH]1)N(C=O)C(CNc1ccc(C(=O)N[C@@H](CCC(=O)O)C(=O)O)cc1)CN2` (stereo not given in full) [LEUCOVORIN], the AC50 in experiment [4] and in experiment [5] was more than 30 µM in each case.
Turning to `CC#CCn1c(N2CCC[C@@H](N)C2)nc2c1c(=O)n(Cc1nc(C)c3ccccc3n1)c(=O)n2C` [LINAGLIPTIN], the AC50 at D(1A) dopamine receptor is more than 10 µM; in experiment [6], more than 10 µM; on Histamine H2 receptor it was 12.3 µM; on Progesterone receptor, more than 30 µM; in experiment [2] it was more than 10 µM; in experiment [3], more than 10 µM.
In the case of `CC(CCc1ccccc1)NC(C)C(O)c1ccc(O)cc1` (stereo not given) [NYLIDRIN], the AC50 is more than 10 µM at Substance-P receptor; more than 10 µM at D(1A) dopamine receptor; more than 10 µM in experiment [6]; more than 10 µM on Histamine H2 receptor; more than 30 µM in [1]; more than 30 µM on Progesterone receptor. The AC50 is 3.38 µM in experiment [2] and more than 10 µM in experiment [3].
As for `CCn1cc(C(=O)O)c(=O)c2cc(F)c(N3CCN(C)CC3)cc21` [PEFLOXACIN], the AC50 in [4] and in experiment [5] was more than 30 µM in each case.
Compound `CC(=O)c1ccc2c(c1)N(CCCN1CCC(CCO)CC1)c1ccccc1S2` [PIPERACETAZINE] gave an AC50 in experiment [2] of 0.0421 µM.
Turning to `CCCNC(C)C(=O)Nc1ccccc1C` (stereo not given) [PRILOCAINE], the AC50 in experiment [4] and in experiment [5] was more than 30 µM each time.
In the case of `[H]/N=C(/N)N[C@H]1[C@H](O)[C@@H](O)[C@H](O[C@@H]2O[C@@H](C)[C@](O)(C=O)[C@H]2O[C@@H]2O[C@@H](CO)[C@H](O)[C@@H](O)[C@@H]2NC)[C@@H](N/C(N)=N\[H])[C@@H]1O` [STREPTOMYCIN], the AC50 on Substance-P receptor is more than 10 µM; at D(1A) dopamine receptor it was more than 10 µM; on Histamine H2 receptor, more than 10 µM; in experiment [1], more than 30 µM; on Progesterone receptor, more than 30 µM; in experiment [2] it was more than 10 µM. Besides, the AC50 was more than 10 µM in experiment [3] and more than 30 µM on Estrogen receptor beta.
With `COc1cc2c(Nc3ccc(Br)cc3F)ncnc2cc1OCC1CCN(C)CC1` [VANDETANIB], the AC50 in [4] and in experiment [5] was more than 30 µM in each case.
Take `COc1ccc(C(CN(C)C)C2(O)CCCCC2)cc1` (stereo not given) [VENLAFAXINE]: the AC50 at Progesterone receptor was more than 30 µM; in experiment [2], more than 10 µM; in experiment [3], more than 10 µM.
On to `N#C[C@@H]1CCCN1C(=O)CNC12CC3CC(CC(O)(C3)C1)C2` [VILDAGLIPTIN], for which the AC50 at Substance-P receptor is more than 10 µM; on D(1A) dopamine receptor, more than 10 µM; in experiment [6], more than 10 µM; on Histamine H2 receptor, more than 10 µM; in experiment [1], more than 10 µM; at Progesterone receptor it was more than 30 µM. Also, the AC50 in [2] and in experiment [3] was more than 10 µM in each case.

What is called AC50 is the concentration giving half of the maximal activity seen.
